Drawing on PubChem BioAssay AID200 (DTP/NCI, 2004), this text covers T/C for 18 compounds.

The subject of this experiment is B6C3F1 mice, B16 melanoma ip, median survival T/C. As to the kind of experiment: NCI In Vivo Anticancer Drug Screen. Data for tumor model B16 Melanoma (intraperitoneal) in B6C3F1 mice. To be noted: endpoint: median survival time, higher = longer survival. An outline of the steps:
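Mice bearing transplanted tumor were dosed with compound or vehicle, and survival was recorded. Activity is expressed as the treated-group measurement (T) divided by the vehicle control measurement (C).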

Setting [1] is: dose: 25.0 mg/kg/injection, schedule: Q01DX009 (ip), vehicle: Klucel (hydroxypropylcellulose) (HPC).
[2] abbreviates: dose: 50.0 mg/kg/injection, schedule: Q01DX009 (ip), vehicle: Klucel (hydroxypropylcellulose) (HPC).
Where [3] appears, read: dose: 100.0 mg/kg/injection, schedule: Q01DX009 (ip), vehicle: Klucel (hydroxypropylcellulose) (HPC).
The mark [4] stands for this setting: dose: 200.0 mg/kg/injection, schedule: Q01DX009 (ip), vehicle: Klucel (hydroxypropylcellulose) (HPC).
Setting [5] is: dose: 400.0 mg/kg/injection, schedule: Q01DX009 (ip), vehicle: Klucel (hydroxypropylcellulose) (HPC).
The mark [6] stands for this setting: dose: 1.56 mg/kg/injection, schedule: Q01DX009 (ip), vehicle: Klucel (hydroxypropylcellulose) (HPC).
Setting [7] is: dose: 3.12 mg/kg/injection, schedule: Q01DX009 (ip), vehicle: Klucel (hydroxypropylcellulose) (HPC).
Where [8] appears, read: dose: 6.25 mg/kg/injection, schedule: Q01DX009 (ip), vehicle: Klucel (hydroxypropylcellulose) (HPC).
[9] abbreviates: dose: 6.25 mg/kg/injection, schedule: Q01DX009 (ip), vehicle: saline with Tween-80.
Where [10] appears, read: dose: 12.5 mg/kg/injection, schedule: Q01DX009 (ip), vehicle: saline with Tween-80.
Setting [11] is: dose: 25.0 mg/kg/injection, schedule: Q01DX009 (ip), vehicle: saline with Tween-80.
Setting [12] is: dose: 50.0 mg/kg/injection, schedule: Q01DX009 (ip), vehicle: saline with Tween-80.
Where [13] appears, read: dose: 100.0 mg/kg/injection, schedule: Q01DX009 (ip), vehicle: saline with Tween-80.
[14] abbreviates: dose: 200.0 mg/kg/injection, schedule: Q01DX009 (ip), vehicle: saline with Tween-80.
[15] abbreviates: dose: 400.0 mg/kg/injection, schedule: Q01DX009 (ip), vehicle: saline with Tween-80.
Where [16] appears, read: dose: 12.5 mg/kg/injection, schedule: Q01DX009 (ip), vehicle: Klucel (hydroxypropylcellulose) (HPC).
Where [17] appears, read: dose: 50.0 mg/kg/injection, schedule: Q01DX009 (ip), vehicle: saline.
Setting [18] is: dose: 100.0 mg/kg/injection, schedule: Q01DX009 (ip), vehicle: saline.

Where “and” joins values, the source holds several entries; their conditions need not be identical. Identical values can stand only once. Toxic doses and inconclusive results are not listed.

In the case of `COCC1OC2OC3C(COC)OC(OC4C(COC)OC(OC5C(COC)OC(OC6C(COC)OC(OC7C(COC)OC(OC8C(COC)OC(OC1C(O)C2O)C(O)C8O)C(O)C7O)C(O)C6O)C(O)C5O)C(O)C4O)C(O)C3O` (stereo not given) (tested in a mixture with another compound), the T/C was 87 % of control under setting [1]; 93 % of control (dose: 25.0 mg/kg/injection, schedule: Q04HX027 (ip), vehicle: Klucel (hydroxypropylcellulose) (HPC)); 90 % of control under setting [2]; 93 % of control (dose: 50.0 mg/kg/injection, schedule: Q01DX009 (oral), vehicle: Klucel (hydroxypropylcellulose) (HPC)); 86 % of control (dose: 50.0 mg/kg/injection, schedule: Q04HX027 (ip), vehicle: Klucel (hydroxypropylcellulose) (HPC)); 97 % of control (dose: 50.0 mg/kg/injection, schedule: Q04HX027 (oral), vehicle: Klucel (hydroxypropylcellulose) (HPC)). In addition, the T/C is, setting by setting: under setting [3], 105 % of control; (dose: 100.0 mg/kg/injection, schedule: Q01DX009 (oral), vehicle: Klucel (hydroxypropylcellulose) (HPC)) 89 % of control and 93 % of control; (dose: 100.0 mg/kg/injection, schedule: Q04HX027 (ip), vehicle: Klucel (hydroxypropylcellulose) (HPC)) 97 % of control; (dose: 100.0 mg/kg/injection, schedule: Q04HX027 (oral), vehicle: Klucel (hydroxypropylcellulose) (HPC)) 106 % of control; under setting [4], 90 % of control; (dose: 200.0 mg/kg/injection, schedule: Q04HX027 (oral), vehicle: Klucel (hydroxypropylcellulose) (HPC)) 105 % of control. The T/C runs as follows: under setting [5], 86 % of control; (dose: 400.0 mg/kg/injection, schedule: Q01DX009 (oral), vehicle: Klucel (hydroxypropylcellulose) (HPC)) 86 % of control and 102 % of control; (dose: 400.0 mg/kg/injection, schedule: Q04HX027 (oral), vehicle: Klucel (hydroxypropylcellulose) (HPC)) 101 % of control; (dose: 800.0 mg/kg/injection, schedule: Q01DX009 (oral), vehicle: Klucel (hydroxypropylcellulose) (HPC)) 93 % of control; (dose: 800.0 mg/kg/injection, schedule: Q04HX027 (oral), vehicle: Klucel (hydroxypropylcellulose) (HPC)) 110 % of control; (dose: 1600.0 mg/kg/injection, schedule: Q01DX009 (oral), vehicle: Klucel (hydroxypropylcellulose) (HPC)) 92 % of control. Further, the T/C is, setting by setting: (dose: 1600.0 mg/kg/injection, schedule: Q04HX027 (oral), vehicle: Klucel (hydroxypropylcellulose) (HPC)) 103 % of control; (dose: 3200.0 mg/kg/injection, schedule: Q01DX009 (oral), vehicle: Klucel (hydroxypropylcellulose) (HPC)) 95 % of control.
On to `CC(NC(=O)C(CO)NC(=O)CN)C(=O)O` (stereo not given), for which the T/C reads like this: under setting [3], 98 % of control; under setting [4], 98 % of control; under setting [5], 98 % of control.
In the case of `COc1cc(C[C@@H]2COC(=O)[C@]2(O)Cc2ccc(O)c(OC)c2)ccc1O`, the T/C reads like this: (dose: 1.0 mg/kg/injection, schedule: Q01DX009 (ip), vehicle: saline + alcohol) 102 % of control; (dose: 2.0 mg/kg/injection, schedule: Q01DX009 (ip), vehicle: saline + alcohol) 88 % of control; (dose: 4.0 mg/kg/injection, schedule: Q01DX009 (ip), vehicle: saline + alcohol) 91 % of control; (dose: 8.0 mg/kg/injection, schedule: Q01DX009 (ip), vehicle: saline + alcohol) 101 % of control; (dose: 16.0 mg/kg/injection, schedule: Q01DX009 (ip), vehicle: saline + alcohol) 86 % of control.
Consider `NNC(=S)N/N=C/c1ccc([N+](=O)[O-])s1`, for which the T/C by setting is: (dose: 0.78 mg/kg/injection, schedule: Q01DX009 (ip), vehicle: Klucel (hydroxypropylcellulose) (HPC)) 105 % of control; under setting [6], 99 % of control; under setting [7], 104 % of control; under setting [8], 104 % of control.
As to `O=C1[C@H]2CCC[C@H]2[C@H]2CCC[C@@H]12`, the T/C is, setting by setting: under setting [9], 102 % of control; under setting [10], 99 % of control; under setting [11], 100 % of control; under setting [12], 100 % of control; under setting [13], 100 % of control.
Regarding `NC(=O)CC(N)C(=O)O` (stereo not given), the T/C under setting [12] is 108 % of control; the T/C under setting [13] is 100 % of control; the T/C under setting [14] is 100 % of control; the T/C under setting [15] was 105 % of control; the T/C (dose: 800.0 mg/kg/injection, schedule: Q01DX009 (ip), vehicle: saline with Tween-80) is 120 % of control; the T/C (dose: 1600.0 mg/kg/injection, schedule: Q01DX009 (ip), vehicle: saline with Tween-80) was 118 % of control.
As to `CC(NC(=O)OCC1c2ccccc2-c2ccccc21)C(=O)O` (stereo not given), the T/C is 104 % of control under setting [3], 101 % of control under setting [4] and 87 % of control under setting [5].
For `CCCCNc1ccc2nnc(C)n2n1`, the T/C is, setting by setting: (dose: 50.0 mg/kg/injection, schedule: Q01DX009 (ip), vehicle: DMSO) 98 % of control and 102 % of control; (dose: 100.0 mg/kg/injection, schedule: Q01DX009 (ip), vehicle: DMSO) 110 % of control and 92 % of control; (dose: 200.0 mg/kg/injection, schedule: Q01DX009 (ip), vehicle: DMSO) 92 % of control.
For the compound `Nc1ccc2ccc(N)cc2c1`, the T/C runs as follows: under setting [11], 109 % of control; under setting [12], 109 % of control; under setting [13], 116 % of control; under setting [14], 105 % of control.
As to `CCn1c(-c2ccc(OC(C)=O)cc2)c(C)c2cc(OC(C)=O)ccc21`, the T/C is, setting by setting: under setting [1], 104 % of control; under setting [2], 97 % of control; under setting [3], 97 % of control; under setting [4], 87 % of control; under setting [5], 107 % of control.
Take `O=NNc1cnccn1`: the T/C was 120 % of control and 103 % of control and 106 % of control (dose: 3.12 mg/kg/injection, schedule: Q01DX009 (ip), vehicle: water); 109 % of control and 110 % of control and 114 % of control (dose: 6.25 mg/kg/injection, schedule: Q01DX009 (ip), vehicle: water); 113 % of control (dose: 12.5 mg/kg/injection, schedule: Q01DX009 (ip), vehicle: water); 155 % of control and 158 % of control and 169 % of control (dose: 25.0 mg/kg/injection, schedule: Q01DX009 (ip), vehicle: water); 96 % of control (dose: 50.0 mg/kg/injection, schedule: Q01DX009 (ip), vehicle: water).
In the case of `NC(=O)CC(NC(=O)OCC1c2ccccc2-c2ccccc21)C(=O)O` (stereo not given), the T/C is 116 % of control under setting [16] and 107 % of control under setting [1].
Turning to `CC(N)C(=O)NC(CC(N)=O)C(=O)O` (stereo not given), the T/C was 103 % of control under setting [17]; 94 % of control under setting [18]; 97 % of control (dose: 200.0 mg/kg/injection, schedule: Q01DX009 (ip), vehicle: saline).
For `CC1(C)CC(=O)C(CSC(=O)c2ccccc2)C(=O)C1`, the T/C runs as follows: under setting [6], 94 % of control; under setting [7], 97 % of control and 99 % of control; under setting [8], 98 % of control; under setting [16], 93 % of control.
With `Cc1ccc(S(=O)(=O)NC(=S)S)cc1`, the T/C by setting is: under setting [10], 92 % of control; under setting [11], 92 % of control; under setting [12], 95 % of control; under setting [13], 97 % of control; under setting [14], 94 % of control.
Consider `O=Cc1ccc([N+](=O)[O-])s1`, for which the T/C (dose: 3.12 mg/kg/injection, schedule: Q01DX009 (ip), vehicle: saline with Tween-80) was 98 % of control; the T/C under setting [9] was 105 % of control; the T/C under setting [10] was 101 % of control; the T/C under setting [11] is 101 % of control; the T/C under setting [12] is 88 % of control.
For the compound `Nc1nc2ncc(CNc3ccc(C(=O)NC(CCC(=O)O)C(=O)O)cc3)nc2c(=O)[nH]1` (stereo not given), the T/C is, setting by setting: (dose: 6.25 mg/kg/injection, schedule: Q01DX009 (ip), vehicle: saline) 96 % of control; (dose: 12.5 mg/kg/injection, schedule: Q01DX009 (ip), vehicle: saline) 91 % of control; (dose: 25.0 mg/kg/injection, schedule: Q01DX009 (ip), vehicle: saline) 108 % of control; under setting [17], 96 % of control; under setting [18], 101 % of control.
As to `O=C(N/N=C/c1ccccc1O)c1cccc([N+](=O)[O-])c1`, the T/C is 103 % of control under setting [13], 87 % of control under setting [14] and 96 % of control under setting [15].
